# Like-named read-outs stand apart in the source and are kept apart here.
# Experiments:
# Format in all cases: cell-based
# [1] = test system: Methicillin-resistant Staphylococcus aureus NRS384 (MRSA USA300); test: MIC broth microdilution, initial screening
# Experimental: The minimum inhibitory concentrations (MICs) of the tested compounds and control drugs (linezolid, vancomycin, gentamicin (antibiotics) and fluconazole and 5-fluorocytosine (5-FC) (antifungal drugs)) were determined using the broth microdilution method, according to guidelines outlined by the Clinical and Laboratory Standards Institute (CLSI, Clinical and Laboratory Standards Institute, Methods for antimicrobial susceptibility testing of anaerobic bacteria; approved standard, M11-A8. 8th ed., 2012; CLSI, Clinical and Laboratory Standards Institute. M27-A3 Reference Method for Broth Dilution Antifungal Susceptibility Testing of Yeasts; Approved Standard—Third Edition, Wayne, Pa., 2008) against clinically-relevant bacterial (methicillin-resistant Staphylococcus aureus (MRSA), Escherichia coli, and C. difficile strains) and fungal (Candida albicans) strains. S. aureus and E. coli were grown aerobically overnight on tryptone soy agar plates at 37° C. C. difficile was grown anaerobically on brain heart infusion supplemented agar at 37° C. for 48 hours. C. albicans was grown aerobically overnight on yeast peptone dextrose (YPD) agar plate at 35° C. Afterwards, a bacterial solution equivalent to 0.5 McFarland standard was prepared and diluted in cation-adjusted Mueller-Hinton broth (CAMHB) (for S. aureus and E. coli) to achieve a bacterial concentration of about 5×10^5 CFU/mL. C. difficile was diluted in brain heart infusion supplemented broth, supplemented with yeast extract, hemin and vitamin K to achieve a bacterial concentration of about 5×10^5 CFU/mL. C. albicans was diluted in Roswell Park Memorial Institute (RPMI 1640) medium with glutamine and without bicarbonate (GIBCO by Life Technologies, Green Island, N.Y., USA) which was buffered to pH 7.0 with 0.165 M of [3-(N-morpholino) propanesulfonic acid] (MOPS) (DOT Scientific Inc., Burton, Mich., USA) to achieve a fungal concentration of about 1.5×10^3 CFU/mL. Compounds and control drugs were added in the first row of the 96-well plates and serially diluted with the corresponding media containing bacteria. Plates were then incubated aerobically at 37° C. for 18-20 hours (for S. aureus and E. coli). C. difficile was incubated anaerobically at 37° C. for 48 hours. C. albicans was incubated aerobically at 37° C. for 24 hours.
# (§1) The minimum inhibitory concentrations (MICs) of the tested compounds and control drugs; linezolid, vancomycin, gentamicin (antibiotics) and fluconazole and 5-fluorocytosine (5-FC) (antifungal drugs) were determined using the broth microdilution method, according to guidelines outlined by the Clinical and Laboratory Standards Institute (CLSI)^1, 2, 3 against clinically-relevant bacterial (methicillin-resistant Staphylococcus aureus (MRSA), Escherichia coli and Clostridium difficile strains) and fungal (Candida albicans) strain. S. aureus and E. coli were grown aerobically overnight on tryptone soy agar plates at 37° C. C. difficile was grown anaerobically on brain heart infusion supplemented agar at 37° C. for 48 hours. C. albicans was grown aerobically overnight on yeast peptone dextrose (YPD) agar plate at 35° C. Afterwards, a bacterial solution equivalent to 0.5 McFarland standard was prepared and diluted in cation-adjusted Mueller-Hinton broth (CAMHB) (for S. aureus and E. coli) to achieve a bacterial concentration of about 5×10^5 CFU/mL. C. difficile was diluted in brain heart infusion supplemented broth, supplemented with yeast extract, hemin and vitamin K to achieve a bacterial concentration of about 5×10^5 CFU/mL. C. albicans was diluted in Roswell Park Memorial Institute (RPMI 1640) medium with glutamine and without bicarbonate (GIBCO by Life Technologies, Green Island, N.Y., USA) which was buffered to pH 7.0 with 0.165 M of [3-(N-morpholino) propanesulfonic acid]
# [2] = test system: Vancomycin-resistant Enterococcus faecium ATCC-700221 (VRE ATCC-700221); test: MIC of active MY compounds; settings: read-out: MIC VRE ATCC-700221
# Text: (§2) Based upon the initial results obtained, the active compounds were further screened against additional clinical isolates of methicillin-sensitive S. aureus (MSSA), methicillin-resistant S. aureus (MRSA), vancomycin-resistant S. aureus (VRSA), Staphylococcus epidermidis, vancomycin-resistant Enterococcus faecium (VRE), vancomycin-resistant Enterococcus faecalis (VRE) and Streptococcus pneumoniae, as presented in Table 2. Additionally, we examined whether the compounds were bacteriostatic (inhibit bacteria from growing) or bactericidal (kill bacteria) by determining the minimum bactericidal concentration (MBC). The MBC was determined by plating 5 μL from each well where no growth was present (in the MIC plates) onto tryptic soya agar plates and incubating plates at 37° C. for 24 hours. The MBC was categorized as the lowest concentration that generated a 99.9% reduction in bacterial colony-forming units (Table 3).
# as §1, with “acid] (MOPS) (dot scientific inc., Burton, Mich., USA) to achieve a fungal concentration of about 1.5×10^3 CFU/mL. Compounds and control drugs were added in the first row of the 96-well plates and serially diluted with the corresponding media containing bacteria/fungi. Plates were then, incubated aerobically at 37° C. for 18-20 hours (for S. aureus and E. coli). C. difficile was incubated anaerobically at 37° C. for 48 hours. C. albicans was incubated aerobically at 37° C. for 24 hours.” for “acid]”
# [3] = test system: Vancomycin-resistant Staphylococcus aureus (VRSA10); test: MIC of active MY compounds; settings: read-out: MIC VRSA10
# Text: as §2
# as §1, with “acid] (MOPS) (dot scientific inc., Burton, Mich., USA) to achieve a fungal concentration of about 1.5×10^3 CFU/mL. Compounds and control drugs were added in the first row of the 96-well plates and serially diluted with the corresponding media containing bacteria/fungi. Plates were then, incubated aerobically at 37° C. for 18-20 hours (for S. aureus and E. coli). C. difficile was incubated anaerobically at 37° C. for 48 hours. C. albicans was incubated aerobically at 37° C. for 24 hours.” for “acid]”
# [4] = test system: Vancomycin-resistant Staphylococcus aureus (VRSA12); test: MIC of active MY compounds; settings: read-out: MIC VRSA12
# Text: as §2
# as §1, with “acid] (MOPS) (dot scientific inc., Burton, Mich., USA) to achieve a fungal concentration of about 1.5×10^3 CFU/mL. Compounds and control drugs were added in the first row of the 96-well plates and serially diluted with the corresponding media containing bacteria/fungi. Plates were then, incubated aerobically at 37° C. for 18-20 hours (for S. aureus and E. coli). C. difficile was incubated anaerobically at 37° C. for 48 hours. C. albicans was incubated aerobically at 37° C. for 24 hours.” for “acid]”
# [5] = test system: Listeria monocytogenes ATCC-19111; test: MIC of active MY compounds; settings: ATCC19111, read-out: MIC L. monocytogenes ATCC-19111
# [6] = MRSA NRS384 (USA300), broth microdilution, 18-20 hours, read-out: minimum inhibitory concentration (MIC) S. aureus (MRSA USA300)
# [7] = read-out: minimum inhibitory concentration (MIC) S. aureus (MRSA USA300), MRSA NRS384 (USA300), broth microdilution, 18-20 hours
smiles,measurement,setting,value
"CC(=O)NC[C@H]1CN(c2ccc(N3CCOCC3)c(F)c2)C(=O)O1 [Linezolid, reference compound]",MIC,[1]; [6],1 µg/mL
same,MIC,[2],1 µg/mL
same,MIC,[3],1 µg/mL
same,MIC,[4],1 µg/mL
same,MIC,[5],0.5 µg/mL
"O=C(Nc1cccc(Nc2ccc(Cl)nn2)c1)Nc1ccc(Cl)c(Cl)c1 [MY14, 1-(3-((6-chloropyridazin-3-yl)amino)phenyl)-3-(3,4-dichlorophenyl)urea]",MIC,[2],32 µg/mL
same,MIC,[3],2 µg/mL
same,MIC,[4],4 µg/mL
same,MIC,[5],8 µg/mL
"O=C(Nc1ccc(-c2ccc(=O)[nH]n2)cc1)Nc1ccc(Cl)c(Cl)c1 [MY21, 1-(3,4-dichlorophenyl)-3-(4-(6-oxo-1,6-dihydropyridazin-3-yl)phenyl)urea]",MIC,[1]; [7],0.5 to 1 µg/mL
same,MIC,[2],2 µg/mL
same,MIC,[3],1 µg/mL
same,MIC,[4],1 µg/mL
same,MIC,[5],0.5 µg/mL
"O=C(Nc1ccc(Oc2ccc(=O)[nH]n2)cc1)Nc1ccc(Cl)c(Cl)c1 [MY24, 1-(3,4-dichlorophenyl)-3-(4-((6-oxo-1,6-dihydropyridazin-3-yl)oxy)phenyl)urea]",MIC,[1]; [7],0.5 to 1 µg/mL
same,MIC,[2],4 µg/mL
same,MIC,[3],1 µg/mL
same,MIC,[4],2 µg/mL
same,MIC,[5],1 µg/mL
"O=C(Nc1ccc(Oc2ccc(=O)[nH]n2)cc1)Nc1ccc(Cl)c(C(F)(F)F)c1 [MY31, 1-(4-chloro-3-(trifluoromethyl)phenyl)-3-(4-((6-oxo-1,6-dihydropyridazin-3-yl)oxy)phenyl)urea]",MIC,[1]; [7],0.5 to 1 µg/mL
same,MIC,[2],1 µg/mL
same,MIC,[3],0.5 µg/mL
same,MIC,[4],1 µg/mL
same,MIC,[5],0.5 µg/mL
"CNC(=O)c1cc(Oc2ccc(NC(=O)Nc3ccc(Cl)c(C(F)(F)F)c3)cc2)ccn1 [Sorafenib, reference compound]",MIC,[1]; [6],4 µg/mL
same,MIC,[2],> 64 µg/mL
same,MIC,[3],4 µg/mL
same,MIC,[4],2 µg/mL
same,MIC,[5],4 µg/mL
"CN[C@H](CC(C)C)C(=O)N[C@H]1C(=O)N[C@@H](CC(N)=O)C(=O)N[C@H]2C(=O)N[C@H]3C(=O)N[C@H](C(=O)N[C@H](C(=O)O)c4cc(O)cc(O)c4-c4cc3ccc4O)[C@H](O)c3ccc(c(Cl)c3)Oc3cc2cc(c3O[C@@H]2O[C@H](CO)[C@@H](O)[C@H](O)[C@H]2O[C@H]2C[C@](C)(N)[C@H](O)[C@H](C)O2)Oc2ccc(cc2Cl)[C@H]1O [Vancomycin, reference compound]",MIC,[1]; read-out: minimum inhibitory concentration (MIC) S. aureus (MRSA USA300),1 µg/mL
same,MIC,[2],> 64 µg/mL
same,MIC,[3],64 µg/mL
same,MIC,[4],64 µg/mL
same,MIC,[5],1 µg/mL
